Test results: patent publication US20260250318A1, “COMPOSITIONS AND METHODS FOR CROSSING THE BLOOD BRAIN BARRIER” (VOYAGER THERAPEUTICS, INC., priority 2022, published 2026)

System: brains, heart, liver, muscle, and DRG of the NHPs
Assay: Maturation of TTM-001 and TTM-002 capsids, NGS enrichment in NHP tissues
Type: in vivo
Text: This Example describes maturation of the AAV9 capsid variants, TTM-001 (SEQ ID NO: 981 (amino acid) and 983 (DNA), comprising SEQ ID NO: 941 (encoded by SEQ ID NO: 942)) and TTM-002 (SEQ ID NO: 982 (amino acid) and 984 (DNA), comprising SEQ ID NO: […] (encoded by SEQ ID NO: 944)) in NHPs to further enhance their transduction and biodistribution in the central nervous system as well as other tissues, and evolve the AAV capsid variants to provide further cross-species compatibility. Two approaches were used to mature the TTM-001 and TTM-002 capsid sequences in order to randomize and mutate within and around the peptide insert comprised within loop IV of the capsid variant. […] In the first maturation approach, sets of three contiguous amino acids were randomized across the mutagenesis region in the TTM-001 and TTM-002 sequences, which spanned from position 450 to position 466, numbered according to SEQ ID NO: 981 and 982. In the second maturation approach, mutagenic primers were used to introduce point mutations at a low frequency, scattered across the mutagenesis region in the TTM-001 and TTM-002 sequences ranging from position 449 to position 466, numbered according to SEQ ID NO: 981 and 982. AAV capsid variants arising from each maturation approach for TTM-001 and TTM-002 were pooled together, for subsequent testing and characterization in NHPs.
The library of pooled matured AAV capsid variants generated using the first maturation approach and the second maturation approach for the TTM-001 and TTM-002 AAV capsid variants were injected into two NHPs. […] Following RNA recovery and RT-PCR amplification, a systematic NGS enrichment analysis was performed to calculate the fold enrichment ratio relative to an AAV9 control, and the peptides comprised within the variants were identified.
Following the RNA recovery and NGS analysis from the second maturation approach, approximately 680,000 capsid variants were identified. The 680,000 matured capsid variants were then filtered based on samples with a raw virus count greater than 10 and a coefficient of variance (CV) of less than 1, which was calculated for each peptide across the brain samples taken from the two NHPs. […] Using this filtering criteria, this led to approximately 64,000 matured capsid variants.

[1] = NHP DRG, NGS, relative to AAV9 control
[2] = NHP brain, NGS, relative to AAV9 control
[3] = NHP heart, NGS, relative to AAV9 control
[4] = NHP liver DNA, NGS, relative to AAV9 control
[5] = NHP liver RNA, NGS, TTM-001 and TTM-002 matured AAV capsid variants, relative to AAV9 control
[6] = NHP muscle, NGS, relative to AAV9 control
[7] = NGS fold-enrichment, DRG, NHP, relative to AAV9
[8] = NGS fold-enrichment, brain, NHP, relative to AAV9
[9] = NGS fold-enrichment, heart, NHP, relative to AAV9
[10] = NGS fold-enrichment, liver DNA, NHP, relative to AAV9
[11] = NGS fold-enrichment, liver RNA, NHP, relative to AAV9
[12] = NGS fold-enrichment, muscle, NHP, relative to AAV9

Sequence | Fold Enrichment relative to AAV9, DRG (NHP) [1] | Fold Enrichment relative to AAV9, Brain (NHP) [2] | Fold Enrichment relative to AAV9, Heart (NHP) [3] | Fold Enrichment relative to AAV9, Liver DNA (NHP) [4] | Fold Enrichment relative to AAV9, Liver RNA (NHP) [5] | Fold Enrichment relative to AAV9, Muscle (NHP) [6] | Fold Enrichment relative to AAV9, DRG (NHP) [7] | Fold Enrichment relative to AAV9, Brain (NHP) [8] | Fold Enrichment relative to AAV9, Heart (NHP) [9] | Fold Enrichment relative to AAV9, Liver DNA (NHP) [10] | Fold Enrichment relative to AAV9, Liver RNA (NHP) [11] | Fold Enrichment relative to AAV9, Muscle (NHP) [12]
KTINGSGSPHSFQINQQT | 0.000 fold | 0.308 fold | 1.568 fold | 0.269 fold | 17.418 fold | 0.000 fold |  |  |  |  |  | 
KTINGSGSPHWVAQNQQT | 0.000 fold | 0.000 fold | 0.000 fold | 3.634 fold | 11.703 fold | 0.000 fold |  |  |  |  |  | 
KTINGSGSPHCALQNQQT | 0.000 fold | 0.000 fold | 0.000 fold | 3.867 fold | 11.404 fold | 0.000 fold |  |  |  |  |  | 
KTINWSRSPHSKAQNQQT | 0.000 fold | 0.000 fold | 0.000 fold | 5.624 fold | 14.399 fold | 0.000 fold |  |  |  |  |  | 
KTINGSGSPHSYTRNQQT | 0.000 fold | 0.000 fold | 0.000 fold | 1.986 fold | 14.535 fold | 0.000 fold |  |  |  |  |  | 
KTINGSGSPHIVWQNQQT | 0.000 fold | 0.000 fold | 0.000 fold | 6.056 fold | 58.021 fold | 0.000 fold |  |  |  |  |  | 
KTINGSGSPHLCVQNQQT | 0.000 fold | 0.000 fold | 0.000 fold | 1.428 fold | 19.030 fold | 0.000 fold |  |  |  |  |  | 
KKHLGSGSPHSKAQNQQT | 0.000 fold | 0.000 fold | 0.000 fold | 0.658 fold | 18.521 fold | 0.000 fold |  |  |  |  |  | 
KTINGSGSPHSKKVFQQT | 0.000 fold | 0.000 fold | 0.000 fold | 4.480 fold | 43.747 fold | 0.000 fold |  |  |  |  |  | 
KTINGSGSPHSVFENQQT |  |  |  |  |  |  | 0.000 fold | 0.000 fold | 0.000 fold | 0.224 fold | 10.218 fold | 0.000 fold
KTINGSGSPHSKRSYQQT | 0.000 fold | 0.000 fold | 0.000 fold | 2.116 fold | 28.973 fold | 0.000 fold |  |  |  |  |  | 
KTRTRSGSPHSKAQNQQT | 0.000 fold | 0.000 fold | 0.000 fold | 6.894 fold | 25.852 fold | 0.000 fold |  |  |  |  |  | 
KTINGSGSPHSMYMNQQT | 0.000 fold | 0.000 fold | 0.000 fold | 5.840 fold | 81.106 fold | 0.000 fold |  |  |  |  |  | 
KTINGAYSPHRKAQNQQT | 0.000 fold | 0.000 fold | 0.000 fold | 1.283 fold | 40.969 fold | 0.000 fold |  |  |  |  |  | 
KTINGSGSPHSKLPKQQT | 0.000 fold | 0.000 fold | 0.000 fold | 0.274 fold | 11.856 fold | 0.000 fold |  |  |  |  |  | 
KTINGSGSPHVNCQNQQT | 0.000 fold | 0.000 fold | 0.000 fold | 6.122 fold | 30.010 fold | 0.000 fold |  |  |  |  |  | 
KTINGSGSPHSKACSRQT | 0.000 fold | 0.000 fold | 0.000 fold | 2.468 fold | 42.696 fold | 0.000 fold |  |  |  |  |  | 
KTINLGCSPHSKAQNQQT | 0.000 fold | 0.000 fold | 0.000 fold | 0.654 fold | 12.564 fold | 0.000 fold |  |  |  |  |  | 
KTINGSGSPHSKAFYRQT | 0.000 fold | 0.000 fold | 0.000 fold | 3.577 fold | 77.541 fold | 0.000 fold |  |  |  |  |  | 
KTINGSGSPHSKRNYQQT | 0.000 fold | 0.000 fold | 0.000 fold | 5.528 fold | 12.781 fold | 0.000 fold |  |  |  |  |  | 
KTINGSGSPHSVRYNQQT | 0.000 fold | 0.000 fold | 0.000 fold | 1.413 fold | 16.390 fold | 0.000 fold |  |  |  |  |  | 
KYSMGSGSPHSKAQNQQT (peptide inserted in AAV capsid) |  |  |  |  |  |  | 0.000 fold | 0.000 fold | 0.000 fold | 1.587 fold | 10.478 fold | 0.000 fold
KTINGSGSPHSCSRNQQT | 0.000 fold | 0.000 fold | 0.000 fold | 4.293 fold | 40.372 fold | 0.000 fold |  |  |  |  |  | 
KTINKCLSPHSKAQNQQT | 0.000 fold | 0.000 fold | 0.000 fold | 5.097 fold | 30.667 fold | 0.000 fold |  |  |  |  |  | 
KTINRQFSPHSKAQNQQT |  |  |  |  |  |  | 0.000 fold | 0.000 fold | 0.000 fold | 4.480 fold | 10.275 fold | 0.000 fold
